Assay results published in patent US20240327428A1, “Inhibitors of human immunodeficiency virus replication, method of making and method of using thereof” (ASCLETIS BIOSCIENCE CO., LTD., priority 2023, published 2024).
Where two headings read alike, the source gives them in different places.

Experiments:
[1] = Cellular toxicity in MT-4 cells (XTT staining); type: cell-based; details: human, 6 days incubation, read-out: TC50 (50% reduction in cell viability)
Description: (§1) The compounds were evaluated for inhibition of HIV-1IIIB infection and cellular toxicity in MT-4 cells.
(§2) The MT-4 cells and […] used in the HIV-1 inhibition assays were obtained from the AIDS Research and Reference Program (Rockville, MD) and propagated as recommended by the supplier.
(§3) Fifty microliters (50 μL) of MT-4 cells at a density of 1.0×10^4 cells/well in 10% complete RPMI-1640 (10% FBS supplemented with 1% L-glutamine and 1% Penicillin/Streptomycin) media were plated in a 96-well flat bottom plate. One-hundred microliters (100 μL) of each compound at 12 concentrations were added in triplicate followed by 50 μL of HIV-1IIIB at a pre-determined titer. The cultures were incubated for 6 days at 37° C./5% CO2. Following the incubation, the cells were stained with XTT for evaluation of compound efficacy and cellular toxicity, as described below.
(§4) Efficacy and toxicity values for the test materials were derived by measuring the reduction of the tetrazolium dye XTT (2,3-bis(2-methoxy-4-nitro-5-sulfophenyl)-5-[(phenylamino)carbonyl]-2H-tetrazolium hydroxide). XTT in metabolically active cells is metabolized by the mitochondrial enzyme NADPH oxidase to a soluble formazan product. XTT solution was prepared daily as a stock of 1 mg/mL in RPMI-1640 without additives. Phenazine methosulfate (PMS) solution was prepared at 0.15 mg/mL in DPBS and stored in the dark at −20° C. XTT/PMS stock was prepared immediately before use by adding 40 μL of PMS per mL of XTT solution. Fifty μL (50 μL) of XTT/PMS was added to each well of the plate and the plate incubated for 4 hours at 37° C. The 4-hour incubation has been empirically determined to be within the linear response range for XTT dye reduction with the indicated numbers of cells for each assay. The plates were sealed and inverted several times to mix the soluble formazan product and the plate was read at 450 nm (650 nm reference wavelength) with a Molecular Devices SpectraMax Plus 384 96 well plate format spectrophotometer.
(§5) Microsoft Excel 2010 in combination with XLfit4 was used to analyze and graph the data. EC50 (50% inhibition of virus replication), TC50 (50% reduction in cell viability) and a therapeutic index (TC50/EC50) are provided. Raw data for both antiviral activity and toxicity with a graphic representation of the data are provided in a printout summarizing the compound activity.

HIV-1IIIB = assay: Inhibition of HIV-1IIIB infection in MT-4 cells (XTT staining); type: cell-based; details: HIV-1IIIB in MT-4 cells; for EC50: 6 days incubation, XTT, read-out: EC50 (50% inhibition of virus replication)
Description: as §1, §2, §3, §4, §5

[2] = Human immunodeficiency virus 1, MT4, 144 h

Compound	CC50 at 6 days [1] [nM]	Therapeutic Index (TC50/EC50) (HIV-1IIIB)	EC50 (HIV-1IIIB; [2]) [nM]	EC50 (HIV-1IIIB) [nM]
CC1(C)CN(c2nc3nc([C@H](Cc4cc(F)cc(F)c4)NC(=O)Cn4nc(C(F)(F)F)c5c4C(F)(F)[C@@H]4C[C@H]54)n(-c4ccc(Cl)c5c(NS(C)(=O)=O)nn(CC(F)(F)F)c45)c(=O)c3s2)CCO1 (racemic) [Compound 52]	> 100	>653.6	0.153	–
Cn1nc(NS(C)(=O)=O)c2c(Cl)ccc(-n3c([C@H](Cc4cc(F)cc(F)c4)NC(=O)Cn4nc(C(F)(F)F)c5c4C(F)(F)[C@@H]4C[C@H]54)nc4nc(N5CCOCC5)sc4c3=O)c21 [Compound 51]	> 100	>518.1	0.193	–
Cn1nc(NS(C)(=O)=O)c2c(Cl)ccc(-n3c([C@H](Cc4cc(F)cc(F)c4)NC(=O)Cn4nc(C(F)(F)F)c5c4C(F)(F)[C@@H]4C[C@H]54)nc4ncsc4c3=O)c21 (atropisomer, axis not shown) [Compound 35]	> 100	–	–	> 100
COCCNc1nc2nc([C@H](Cc3cc(F)cc(F)c3)NC(=O)Cn3nc(C(F)(F)F)c4c3C(F)(F)[C@@H]3C[C@H]43)n(-c3ccc(Cl)c4c(NS(C)(=O)=O)nn(C)c34)c(=O)c2s1 [Compound 46]	> 100	>510.2	0.196	–
Cn1nc(NS(C)(=O)=O)c2c(Cl)ccc(-n3c([C@H](Cc4cc(F)cc(F)c4)NC(=O)Cn4nc(C(F)(F)F)c5c4C(F)(F)[C@@H]4C[C@H]54)nc4nc(N5CC6(COC6)C5)sc4c3=O)c21 (atropisomer, axis not shown) [Compound 41]	> 100	>193.4	0.517	–
Cc1nsc2nc([C@H](Cc3cc(F)cc(F)c3)NC(=O)Cn3nc(C(F)(F)F)c4c3C(F)(F)[C@@H]3C[C@H]43)n(-c3ccc(Cl)c4c(NS(C)(=O)=O)nn(C)c34)c(=O)c12 (atropisomer, axis not shown) [Compound 44]	> 100	>2.9	–	34.1
Cn1nc(NS(C)(=O)=O)c2c(Cl)ccc(-n3c([C@H](Cc4cc(F)cc(F)c4)NC(=O)Cn4nc(C(F)(F)F)c5c4C(F)(F)[C@@H]4C[C@H]54)nc4onc(-c5ccccc5)c4c3=O)c21 (atropisomer, axis not shown) [Compound 37]	> 100	>9.0	–	11.1
CN(C)c1nc2nc([C@H](Cc3cc(F)cc(F)c3)NC(=O)Cn3nc(C(F)(F)F)c4c3C(F)(F)[C@@H]3C[C@H]43)n(-c3ccc(Cl)c4c(NS(C)(=O)=O)nn(C)c34)c(=O)c2s1 (atropisomer, axis not shown) [Compound 48]	> 100	>432.9	0.231	–
Cn1nc(NS(C)(=O)=O)c2c(Cl)ccc(-n3c([C@H](Cc4cc(F)cc(F)c4)NC(=O)Cn4nc(C(F)(F)F)c5c4C(F)(F)[C@@H]4C[C@H]54)nc4sc(-c5ccc(F)cc5)cc4c3=O)c21 (atropisomer, axis not shown) [Compound 42]	> 100	>26.4	3.79	–
CS(=O)(=O)Nc1nn(CC(F)(F)F)c2c(-n3c([C@H](Cc4cc(F)cc(F)c4)NC(=O)Cn4nc(C(F)(F)F)c5c4C(F)(F)[C@@H]4C[C@H]54)nc4ncsc4c3=O)ccc(Cl)c12 [Compound 3]	> 100	>625.0	0.16	–
Cn1nc(NS(C)(=O)=O)c2c(Cl)ccc(-n3c([C@H](Cc4cc(F)cc(F)c4)NC(=O)Cn4nc(C(F)(F)F)c5c4C(F)(F)[C@@H]4C[C@H]54)nc4sccc4c3=O)c21 (atropisomer, axis not shown) [Compound 32]	> 100	–	–	> 100
CN(CCC(F)(F)F)c1nc2nc([C@H](Cc3cc(F)cc(F)c3)NC(=O)Cn3nc(C(F)(F)F)c4c3C(F)(F)[C@@H]3C[C@H]43)n(-c3ccc(Cl)c4c(NS(C)(=O)=O)nn(C)c34)c(=O)c2s1 [Compound 50]	> 100	>1136.4	0.088	–
Cn1nc(NS(C)(=O)=O)c2c(Cl)ccc(-n3c([C@H](Cc4cc(F)cc(F)c4)NC(=O)Cn4nc(C(F)(F)F)c5c4C(F)(F)C4CC54)nc4nc(S(C)(=O)=O)sc4c3=O)c21 (stereo partly shown) [Compound 29]	> 100	>2.9	–	34.9
Cn1nc(NS(C)(=O)=O)c2c(Cl)ccc(-n3c([C@H](Cc4cc(F)cc(F)c4)NC(=O)Cn4nc(C(F)(F)F)c5c4C(F)(F)[C@@H]4C[C@H]54)nc4cc(N5CCCC5)sc4c3=O)c21 [Compound 39]	> 100	>5.4	18.6	–
Cn1nc(NS(C)(=O)=O)c2c(Cl)ccc(-n3c([C@H](Cc4cc(F)cc(F)c4)NC(=O)Cn4nc(C(F)(F)F)c5c4C(F)(F)[C@@H]4C[C@H]54)nc4c(c3=O)CCCN4)c21 (atropisomer, axis not shown) [Compound 34]	> 100	>42.6	2.35	–
Cn1nc(NS(C)(=O)=O)c2c(Cl)ccc(-n3c([C@H](Cc4cc(F)cc(F)c4)NC(=O)Cn4nc(C(F)(F)F)c5c4C(F)(F)[C@@H]4C[C@H]54)nc4sc(CC(F)(F)F)cc4c3=O)c21 [Compound 43]	> 100	>31.7	3.15	–
Cn1nc(NS(C)(=O)=O)c2c(Cl)ccc(-n3c([C@H](Cc4cc(F)cc(F)c4)NC(=O)Cn4nc(C(F)(F)F)c5c4C(F)(F)[C@@H]4C[C@H]54)nc4nc(OCCC(F)(F)F)sc4c3=O)c21 (atropisomer, axis not shown) [Compound 53]	> 100	>980.4	0.102	–
Cn1nc(NS(C)(=O)=O)c2c(Cl)ccc(-n3c([C@H](Cc4cc(F)cc(F)c4)NC(=O)Cn4nc(C(F)(F)F)c5c4C(F)(F)[C@@H]4C[C@H]54)nc4nc(N5CCOC(C)(C)C5)sc4c3=O)c21 (atropisomer, axis not shown) [Compound 40]	> 100	>492.6	0.203	–
Cn1nc(NS(C)(=O)=O)c2c(Cl)ccc(-n3c([C@H](Cc4cc(F)cc(F)c4)NC(=O)Cn4nc(C(F)(F)F)c5c4C(F)(F)[C@@H]4C[C@H]54)nc4nc(NCCC(F)(F)F)sc4c3=O)c21 [Compound 49]	> 100	>458.7	0.218	–
Cn1nc(NS(C)(=O)=O)c2c(Cl)ccc(-n3c([C@H](Cc4cc(F)cc(F)c4)NC(=O)Cn4nc(C(F)(F)F)c5c4C(F)(F)[C@@H]4C[C@H]54)nc4nc(NCCO)sc4c3=O)c21 [Compound 47]	> 100	>83.3	1.2	–
CS(=O)(=O)Nc1nn(CC(F)(F)F)c2c(-n3c([C@H](Cc4cc(F)cc(F)c4)NC(=O)Cn4nc(C(F)(F)F)c5c4C(F)(F)[C@@H]4C[C@H]54)nc4sccc4c3=O)ccc(Cl)c12 [Compound 1]	> 100	>312.5	0.32	–
